Data published in patent US20250152559A1, “METHODS FOR TREATING MYC-AMPLIFIED CANCER” (The Governing Council of the University of Toronto, priority 2023, published 2025).
Several values for one entry are separate records, joined by “and”; a condition that tells them apart may be missing. Identical values can stand only once.

Key:
[1] = Pharmacokinetic analysis of BAY2402234 in plasma and brain by LC-MS; type: in vivo; conditions: healthy mice undergoing treatment
Procedure: (§1) In parallel to these experiments, subcutaneous flank xenografts were engrafted into two cohorts of mice, which were treated with the vehicle or R2. […] To investigate the pharmacokinetics of BAY in vivo, its concentration in plasma and brain tissues of healthy mice was directly quantified using an LC-MS approach. BAY was detected in both brains and plasma of mice undergoing treatment, however the plasma concentrations exceeded those of the brain by approximately 10-fold (FIG. 5H-I). To determine whether treatment with BAY affects de novo pyrimidine biosynthesis in vivo, changes in pyrimidine metabolism were measured in the brain in comparison to tumor tissues from the flank (FIG. 5J-K). Although BAY treatment impacted de novo pyrimidine metabolism in vivo in both brain and tumor tissues, with a similar pattern observed in vitro (FIG. 4A), the effect size was stronger in peripheral tumor tissue in comparison to brain tissue. Such findings further reflect the limited capacity for BAY to accumulate within the brain.
Standards and samples were extracted by the addition of organic solvent, containing the internal standard (IS), for protein precipitation. […] Brains were analyzed similarly, with 20 μL of sample transferred to 180 μL of IS solution prior to analysis via LC-MS.

[2] = tested on: de novo pyrimidine biosynthesis in flank tumor tissue; test: LC-MS metabolome profiling of flank xenograft tissues of treated mice; type: in vivo; conditions: individual samples, listed as BAY
Procedure: as §1
For metabolome profiling of tissues, ˜5 mg tissue were homogenized in 225 μL of −20° C. cold, methanol using a Bullet Blender Tissue Homogenizer (NextAdvance, Inc.) Bullet for 3 min. The homogenate was vortexed for 20 s and 750 μL of −20° C. cold methyl tertiary-butyl ether (MTBE) was added, and the mixture was vortexed for 10 s and shaken at 4° C. for 5 min. Next, 188 μL room temperature water was added and vortexed for 20 s to induce phase separation. After centrifugation for 5 min at 14,000×g, the bottom polar phase was collected and dried down. Metabolite extracts were reconstituted in LC-MS grade water/acetonitrile (50:50; v:v), vortexed for 1 min, sonicated for 15 min, and centrifuged at 16,000×g and 4° C. for 15 min to remove insoluble debris.
The LC-MS metabolomics and lipidomics analyses of the 3 NSC and 3 MB cell lines and tissues were performed on a UPLC-MS system consisting of an Orbitrap IQ-X Tribrid coupled to a Horizon Vanquish UPLC system (Thermo Fisher Scientific). The lipidomics analysis was conducted in positive-ion mode with a spray voltage of 3.5 kV while the metabolomics analysis was conducted in negative-ion mode with a spray voltage of −2.5 kV. The following source conditions were identical in both analyses and were set as follows: Sheath gas flow rate, 50 arbitrary units; Aux. gas flow rate, 10 arbitrary units; Sweep gas flow rate, 1 arbitrary unit; Ion transfer tube temp., 300° C.; Vaporizer temp., 350° C. The following acquisition parameters were used for MS1 analysis in both methods: resolution, 120,000, AGC target, 4e5. The maximum IT was set at […] for the lipidomics analysis and 200 ms for the metabolomics analysis. Data-dependent MS/MS parameters for the lipidomics analyses: resolution, 30,000; AGC target, 7.5e4; maximum IT, Dynamic (54 ms); time between Master Scans, 0.6 s; isolation window, 1.0 m/z; NCE/stepped nce, 20, 30, 40; intensity threshold, 5e4; exclude isotopes, on; dynamic exclusion, 3.0 s. Data-dependent MS/MS parameters for the metabolomics analyses: resolution. 15,000; AGC target, 7.5e4; maximum IT, Dynamic (22 ms); time between Master Scans, 0.6 s; isolation window, 1.0 m/z; NCE/stepped nce, 20, 30, 40, 50; intensity threshold, 5e4; exclude isotopes, on; dynamic exclusion, 5.0 s. To increase the total number of MS/MS spectra in the lipidomics analysis, five runs with iterative MS/MS exclusions were performed using the AcquireX function in Xcalibur (Thermo Fisher Scientific). In the metabolomics analysis, three runs with iterative MS/MS exclusions were performed using the AcquireX function. For the lipidomics analysis, chromatographic separation was achieved using a Waters Acquity UPLC CSH C18 (100 mm×2.1 mm i.d.; 1.7 μm) column injecting 2 μL. […] The column was equilibrated for 2 min at 15% B. The flow rate was set to 250 μL/min. The column temperature was maintained at 65° C. […]

[3] = flank tumor tissue of BAY-treated mice

CCn1c(CO)nn(-c2cc(O[C@@H](C)C(F)(F)F)c(C(=O)Nc3c(F)cccc3Cl)cc2F)c1=O [BAY2402234]
plasma concentration relative to brain concentration [1]: approximately 10 fold
Glutamine normalized peak intensity (Area) [2, 3]: 55492788 and 50587148 and 68843176 and 56207472
N-Carbamoyl aspartic acid normalized peak intensity (Area) [2, 3]: 385157056 and 380028608 and 450759360 and 384681824
Orotic acid normalized peak intensity (Area) [2, 3]: 33617724 and 35906864 and 46970420 and 34348420
UDP-GluNAc normalized peak intensity (Area) [2, 3]: 2589539 and 2049874 and 3781049 and 10999488
UTP normalized peak intensity (Area) [2, 3]: 4036 and 1148 and 5307 and 1474
Uridine 5′-diphosphate (UDP) normalized peak intensity (Area) [2, 3]: 5654 and 1891 and 15124 and 5023
Uridine 5′-monophosphate normalized peak intensity (Area) [2, 3]: 17895140 and 14218088 and 25187528 and 9202930
Uridine normalized peak intensity (Area) [2, 3]: 1736921 and 2207031 and 3920911 and 1886173
dihydroorotic acid normalized peak intensity (Area) [2, 3]: 119216720 and 62149264 and 89191448 and 46399468
BAY-2402234 normalized peak intensity (Area) [2]: 249608 and 266857 and 361684 and 146195
